The text below walks through data of US20230373974A1, “MODULATORS OF CYSTIC FIBROSIS TRANSMEMBRANE CONDUCTANCE REGULATOR” (VERTEX PHARMACEUTICALS INCORPORATED, priority 2020, published 2023).

The test has as its target T1, F508del in NIH 3T3 cells (Homo sapiens, UniProt P13569, DEL508-508).
T1 construct: expressed in transfected cells
The experiment in a line: 3T3 assay: membrane potential optical assay for F508del correction. The test is classed as cell-based, mouse. Particulars: F508del NIH 3T3 cells; for EC50: incubated with compound 18-24 hours at 37° C., forskolin activation; for Emax: NIH3T3, efficacy compared to lumacaftor in combination with acutely added 300 nM Ivacaftor, read-out: 3T3 Max Activity (%). The source says:
Membrane Potential Optical Methods for Assaying F508del Modulation Properties of Compounds The assay utilizes fluorescent voltage sensing dyes to measure changes in membrane potential using a fluorescent plate reader (e.g., FLIPR III, Molecular Devices, Inc.) as a readout for increase in functional F508del in NIH 3T3 cells. The driving force for the response is the creation of a chloride ion gradient in conjunction with channel activation by a single liquid addition step after the cells have previously been treated with compounds and subsequently loaded with a voltage sensing dye. 2. Identification of Corrector Compounds To identify correctors of F508del, a single-addition HTS assay format was developed. This HTS assay utilizes fluorescent voltage sensing dyes to measure changes in membrane potential on the FLIPR III as a measurement for increase in gating (conductance) of F508del in F508del NIH 3T3 cells. The F508del NIH 3T3 cell cultures were incubated with the corrector compounds at a range of concentrations for 18-24 hours at 37° C., and subsequently loaded with a redistribution dye. The driving force for the response is a Cl^− ion gradient in conjunction with channel activation with forskolin in a single liquid addition step using a fluorescent plate reader such as FLIPR III. […] Solutions […] Chloride-free bath solution: Chloride salts in Bath Solution #1 (above) are substituted with gluconate salts. 4. Cell Culture NIH3T3 mouse fibroblasts stably expressing F508del are used for optical measurements of membrane potential. The cells are maintained at 37° C. in 5% CO2 and 90% humidity in Dulbecco's modified Eagle's medium supplemented with 2 mM glutamine, 10% fetal bovine serum, 1×NEAA, b-ME, 1×pen/strep, and 25 mM HEPES in 175 cm^2 culture flasks. For all optical assays, the cells were seeded at ˜20,000/well in 384-well Matrigel-coated plates. For the correction assays, the cells are cultured at 37° C. with and without compounds for 16-24 hours.

Bounds are passed on as bounds.

T1 sequence (P13569 with tags, fused parts or gaps DEL508-508): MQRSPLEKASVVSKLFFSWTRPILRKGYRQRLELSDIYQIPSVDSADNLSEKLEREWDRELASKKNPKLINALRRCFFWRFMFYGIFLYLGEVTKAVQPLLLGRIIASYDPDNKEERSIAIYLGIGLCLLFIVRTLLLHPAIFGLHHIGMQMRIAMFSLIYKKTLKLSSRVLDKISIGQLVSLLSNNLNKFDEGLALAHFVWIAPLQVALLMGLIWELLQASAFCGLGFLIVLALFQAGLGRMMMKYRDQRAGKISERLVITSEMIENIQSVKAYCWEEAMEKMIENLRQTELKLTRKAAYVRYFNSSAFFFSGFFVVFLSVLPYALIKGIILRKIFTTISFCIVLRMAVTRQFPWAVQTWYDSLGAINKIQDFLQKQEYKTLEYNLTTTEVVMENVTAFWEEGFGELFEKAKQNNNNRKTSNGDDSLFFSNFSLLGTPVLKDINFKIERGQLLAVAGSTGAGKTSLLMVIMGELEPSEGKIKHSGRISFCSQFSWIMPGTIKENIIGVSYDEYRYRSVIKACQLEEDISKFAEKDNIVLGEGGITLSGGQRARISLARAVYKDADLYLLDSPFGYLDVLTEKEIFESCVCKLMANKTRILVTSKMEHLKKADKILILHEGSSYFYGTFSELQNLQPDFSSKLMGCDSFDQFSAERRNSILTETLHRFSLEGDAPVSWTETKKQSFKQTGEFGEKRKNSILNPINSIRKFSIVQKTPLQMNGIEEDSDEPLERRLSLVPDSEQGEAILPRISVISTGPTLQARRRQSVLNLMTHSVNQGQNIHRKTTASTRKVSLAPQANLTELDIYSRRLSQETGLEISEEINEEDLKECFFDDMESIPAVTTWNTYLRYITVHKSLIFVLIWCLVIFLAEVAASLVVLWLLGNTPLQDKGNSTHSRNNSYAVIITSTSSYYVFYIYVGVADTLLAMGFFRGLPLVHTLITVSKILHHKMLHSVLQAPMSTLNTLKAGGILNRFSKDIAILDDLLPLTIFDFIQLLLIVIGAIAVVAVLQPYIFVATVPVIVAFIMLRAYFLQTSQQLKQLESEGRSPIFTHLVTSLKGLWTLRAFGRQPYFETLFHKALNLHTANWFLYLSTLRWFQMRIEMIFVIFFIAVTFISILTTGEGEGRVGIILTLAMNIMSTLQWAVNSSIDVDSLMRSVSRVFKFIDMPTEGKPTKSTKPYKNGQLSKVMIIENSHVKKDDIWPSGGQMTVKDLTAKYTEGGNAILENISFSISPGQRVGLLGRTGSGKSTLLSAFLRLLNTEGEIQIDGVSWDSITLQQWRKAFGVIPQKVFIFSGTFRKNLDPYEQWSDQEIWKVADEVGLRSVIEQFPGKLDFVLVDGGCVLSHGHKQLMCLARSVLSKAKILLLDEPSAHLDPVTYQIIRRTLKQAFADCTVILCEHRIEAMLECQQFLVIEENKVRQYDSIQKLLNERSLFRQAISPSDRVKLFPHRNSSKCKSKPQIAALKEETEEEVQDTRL

As for `Cc1ccc(-n2nc(NS(=O)(=O)c3ccccc3)c3ccc(C(C)(C)C)nc32)cc1` [Compound 44], the EC50 was less than 1000 nM and the Emax was 30 to 60%. Take `Cc1ccccc1-n1nc(NS(=O)(=O)c2ccccc2)c2ccc(C(C)(C)C)nc21` [Compound 45]: the EC50 is less than 1000 nM and the Emax was in the range of 30 to 60%.

As to `Cc1cc(C)cc(-n2nc(NS(=O)(=O)c3ccccc3)c3cc(C(C)C)cnc32)c1` [Compound 46], the EC50 is less than 1000 nM and the Emax was 30 to 60%. For the compound `C=C(C)c1cnc2c(c1)c(NS(=O)(=O)c1ccccc1)nn2-c1cc(C)cc(C)c1` [Compound 47], the EC50 was less than 1000 nM and the Emax is 30 to 60%. Regarding `Cc1cc(C)cc(-n2nc(NS(=O)(=O)c3ccccc3)c3cc(Br)cnc32)c1` [Compound 48], the EC50 is less than 1000 nM and the Emax lay within 30 to 60%. For `CC(C)C(C)n1nc(NS(=O)(=O)c2ccccc2)c2ccc(C(C)(C)C)nc21` (stereo not shown) [Compound 49], the Emax is less than 30%. For the compound `COc1cccc(-n2nc(NS(=O)(=O)c3ccccc3)c3ccc(C(C)(C)C)nc32)c1` [Compound 50], the EC50 was less than 1000 nM and the Emax lay within 30 to 60%. As to `COc1ccccc1-n1nc(NS(=O)(=O)c2ccccc2)c2ccc(C(C)(C)C)nc21` [Compound 51], the EC50 lay in the range of 1000 to 3000 nM and the Emax lay in the range of 30 to 60%. For `Cc1cc(C)c(-n2nc(NS(=O)(=O)c3ccccc3)c3cccnc32)c(C)c1` [Compound 52], the Emax was in the range of 30 to 60%. Take `Cc1cc(C)c(-n2nc(NS(=O)(=O)c3cccc4c3OCCO4)c3ccc(C(C)(C)C)nc32)c(C)c1` [Compound 53]: the EC50 is less than 1000 nM and the Emax is 30 to 60%. Take `COc1cccc(OC)c1S(=O)(=O)Nc1nn(-c2c(C)cc(C)cc2C)c2nc(C(C)(C)C)ccc12` [Compound 54]: the Emax is less than 30%. Turning to `COc1ccc(N)cc1S(=O)(=O)Nc1nn(-c2c(C)cc(C)cc2C)c2nc(C(C)(C)C)ccc12` [Compound 55], the EC50 is 3000 to 30000 nM and the Emax lay within 30 to 60%. For `Cc1cc(C)c(-n2nc(NS(=O)(=O)c3ncc[nH]3)c3ccc(C(C)(C)C)nc32)c(C)c1` [Compound 56], in that order: 1000 to 3000 nM and 30 to 60%. `COc1cc(OC)cc(S(=O)(=O)Nc2nn(-c3c(C)cc(C)cc3C)c3nc(C(C)(C)C)ccc23)c1` [Compound 57]: the Emax is less than 30%. For the compound `COc1ccc(OC)c(S(=O)(=O)Nc2nn(-c3c(C)cc(C)cc3C)c3nc(C(C)(C)C)ccc23)c1` [Compound 58], the EC50 was less than 1000 nM and the Emax is 30 to 60%.

Take `COc1ccccc1S(=O)(=O)Nc1nn(-c2c(C)cc(C)cc2C)c2nc(C(C)(C)C)ccc12` [Compound 59]: the EC50 lay in the range of 1000 to 3000 nM and the Emax was 30 to 60%. In the case of `COc1cccc(S(=O)(=O)Nc2nn(-c3c(C)cc(C)cc3C)c3nc(C(C)(C)C)ccc23)c1` [Compound 60], the EC50 is less than 1000 nM and the Emax was in the range of 30 to 60%. The corresponding values for `Cc1cc(C)c(-n2nc(NS(=O)(=O)c3cccc(N)c3)c3ccc(C(C)(C)C)nc32)c(C)c1` [Compound 61] are less than 1000 nM and 30 to 60%. Turning to `Cc1cc(C)c(-n2nc(NS(=O)(=O)c3cccc(Cl)c3)c3ccc(C(C)(C)C)nc32)c(C)c1` [Compound 62], the Emax was less than 30%. As for `Cc1cccc(S(=O)(=O)Nc2nn(-c3c(C)cc(C)cc3C)c3nc(C(C)(C)C)ccc23)c1` [Compound 63], the Emax was less than 30%.

For the compound `COc1ccc(S(=O)(=O)Nc2nn(-c3c(C)cc(C)cc3C)c3nc(C(C)(C)C)ccc23)cc1` [Compound 64], the Emax is less than 30%. For the compound `Cc1cc(C)c(-n2nc(NS(=O)(=O)c3ccc(Cl)cc3)c3ccc(C(C)(C)C)nc32)c(C)c1` [Compound 65], the Emax is less than 30%. On to `Cc1ccc(S(=O)(=O)Nc2nn(-c3c(C)cc(C)cc3C)c3nc(C(C)(C)C)ccc23)cc1` [Compound 66], for which the Emax was less than 30%.

For the compound `Cc1cc(C)c(-n2nc(NS(=O)(=O)c3ccccc3N)c3ccc(C(C)(C)C)nc32)c(C)c1` [Compound 67], the Emax is less than 30%. In the case of `Cc1cc(C)c(-n2nc(NS(=O)(=O)c3ccccc3Cl)c3ccc(C(C)(C)C)nc32)c(C)c1` [Compound 68], the Emax is less than 30%. Still for that read-out and setting: the same measure for `Cc1cc(C)c(-n2nc(NS(=O)(=O)c3ccccc3C)c3ccc(C(C)(C)C)nc32)c(C)c1` [Compound 69]: less than 30%.

In the case of `Cc1ccccc1-n1nc(NS(=O)(=O)c2ccccc2)c2ccc(Br)cc21` [Compound 70, N-[6-bromo-1-(o-tolyl)indazol-3-yl]benzenesulfonamide], the EC50 was 1000 to 3000 nM and the Emax is 30 to 60%.

In the case of `Cc1cc(C)c(-n2nc3nc(C(C)(C)C)ccc3c2NS(=O)(=O)c2ccccc2)c(C)c1` [Compound 71], the Emax is less than 30%. Regarding `C=C(C)c1ccc2c(NS(=O)(=O)c3ccccc3)nn(-c3ccccc3C)c2c1` [Compound 72, N-[6-isopropenyl-1-(o-tolyl)indazol-3-yl]benzenesulfonamide], the EC50 was 1000 to 3000 nM and the Emax is more than 60%. For the compound `Cc1ccccc1-n1nc(NS(=O)(=O)c2ccccc2)c2ccc(C(C)C)cc21` [Compound 73, N-[6-isopropyl-1-(o-tolyl)indazol-3-yl]benzenesulfonamide], the EC50 lay within 1000 to 3000 nM and the Emax was 30 to 60%. Consider `CCn1nc(NS(=O)(=O)c2ccccc2)c2ccccc21` [Compound 74], for which the Emax was less than 30%. For the compound `Cc1cccc(C)c1-c1nc(NS(=O)(=O)c2ccccc2)nc2c1CCCC2(C)c1ccccc1` (stereo not shown) [Compound 76, N-[4-(2,6-Dimethylphenyl)-8-methyl-8-phenyl-6,7-dihydro-5H-quinazolin-2-yl]benzenesulfonamide], the EC50 was less than 1000 nM and the Emax is more than 60%.

As for `Cc1cc(C)cc(-c2nc(NS(=O)(=O)c3ccccc3)cc3ccccc23)c1` [Compound 77, N-[1-(3,5-dimethylphenyl)-3-isoquinolyl]benzenesulfonamide], the EC50 was less than 1000 nM.

In the case of `Cc1cc(C)cc(-c2cc(NS(=O)(=O)c3ccccc3)nc3ccccc23)c1` [Compound 78, N-[4-(3,5-Dimethylphenyl)-2-quinolyl]benzenesulfonamide], the Emax was less than 30%. For `Cc1cc(NS(=O)(=O)c2ccccc2)nc2ccccc12` [Compound 81], the Emax is less than 30%.

With `O=S(=O)(Nc1ccc2cc[nH]c2n1)c1ccccc1` [Compound 82], the Emax was less than 30%. For `Cc1ccc(-n2ncc3c2CC(C)(C)CC3NS(=O)(=O)c2ccccc2)cc1` (stereo not shown) [Compound 83], the Emax was less than 30%.

Turning to `CC(C)(C)C1CCc2nc(NS(=O)(=O)c3ccccc3)ncc2C1` (stereo not shown) [Compound 84], the Emax is less than 30%. Regarding `CC(C)n1c(NS(=O)(=O)c2ccccc2)nc2ccccc21` [Compound 85], the Emax is less than 30%. Turning to `Cn1c(NS(=O)(=O)c2ccccc2)nc2ccccc21` [Compound 86], the Emax is less than 30%. Regarding `CC(C)(C)c1ccc2c(NS(=O)(=O)c3ccccc3)cn(-c3cccc(Cl)c3)c2n1` [Compound 87], the Emax was less than 30%.

Consider `Cc1cc(C)cc(-n2cc(NS(=O)(=O)c3ccccc3)c3ccc(C(C)(C)C)nc32)c1` [Compound 88], for which the Emax was less than 30%. As for `Cc1ccccc1-n1cc(NS(=O)(=O)c2ccccc2)c2ccc(C(C)(C)C)nc21` [Compound 89], the Emax is less than 30%.
